Paper PMC10600239, “Selective MCL-1 inhibitor ABBV-467 is efficacious in tumor models but is associated with cardiac troponin increases in patients” (Communications Medicine, 2023)
Values joined by “and” are separate entries in the source; they are usually repeats but may differ in a detail not shown here. Equal entries are not always repeated.

System: OPM-2 xenografts
Assay: OPM-2 xenograft efficacy (tumor volume, body weight)
Type: in vivo, mouse
Conditions: for Tumor Volume (mm³) Day 27, Mean: group mean; for Tumor Volume (mm³) Day 27, Median: group median; for Tumor Volume (mm³) Day 27 / Tumor Volume (mm³) Day 30 / Tumor Volume (mm³) Day 34: individual animals; for Tumor Volume (mm³) Day 23 (individual animals) / Tumor Volume Day 23, Mean / Tumor Volume Day 23, Median / % T/C (mean) / % T/C (median): Day 23
Description: All animal studies were conducted in accordance with the guidelines approved by the Institutional Animal Care and Use Committees of AbbVie. The research protocol was approved by In Vivo Pharmacology at AbbVie prior to study initiation but was not publicly registered or disclosed. Female C.B-17 SCID-beige mice (AMO-1, OPM-2, NCI-H929, and OCI-AML2 xenografts) and female NSG mice (MV4-11-Red.Fluc systemic) were purchased from Charles River Laboratories (Wilmington, MA). Animals were housed in a light cycle-controlled room with HEPA filtration at 22 °C. Animals had nesting and climbing cage topper as the primary environmental enrichment. Animals were inoculated subcutaneously in the right flank with 5 × 10^6 (AMO-1, OPM-2, NCI-H929, and OCI-AML2) or intravenous (IV) with 5 × 10^6 (MV4-11-Red.Fluc). The inoculation volume (0.2 mL) comprised a 50:50 mixture of cells in growth media and Matrigel (BD Biosciences) for subcutaneous injections and 100% phosphate-buffered saline for IV administration. All cell lines used in this publication were authenticated using IDEXX for STR profiling as well as their IMPACT and human IMPACT panels for pathogen screening. Electronic calipers were used to measure the length and width of each tumor 2 to 3 times per week. Tumor volume was estimated by applying the following equation: volume = length × width^2/2. All groups remained blinded during measurements and dosing; only veterinary staff were aware of group identity. When tumors reached approximately 200 mm^3, mice were randomized by match and distributed into treatment and control groups. All xenograft trials were conducted using 5 to 10 mice per group, and all mice were ear tagged and monitored individually throughout the studies. Any animal with a tumor above 2000 mm^3 or 15% loss in body weight was euthanized and removed from the study. Tumor burden in the systemic MV4-11-Red.Fluc experiment was measured using an IVIS® spectrum from PerkinElmer by taking the total photon flux of the entire dorsal side of an individual mouse. Ten minutes prior to imaging, animals received intraperitoneally 0.2 mL of a 15-mg/mL solution of D-Luciferin (PerkinElmer, Catalog #122799) formulated in 100% phosphate-buffered saline. Animals were anesthetized using 3.5% isoflurane and maintained using 2%. Six days after inoculation, animals were imaged and randomized into vehicle and treatment groups at a total flux of ~1 × 10^8. A background control mouse that was tumor naive but received D-Luciferin was placed in the upper left corner of each image. The total flux from this animal was subtracted from the total flux of each animal present in the image.
For in vivo studies, maximal tumor growth inhibition (TGI) was calculated as the greatest treatment response using the following equation: Maximal TGI = (1 − mean tumor volume of the treated group/mean tumor volume of the vehicle control group) × 100. The tumor growth delay (TGD) percentage was determined as the percentage increase of the median time period for the treatment group to reach an arbitrary tumor volume of 1000 mm^3 relative to the vehicle control group. […] A power analysis was conducted using historical data to determine the number of animals required to yield significance of 0.05 at a 30% difference. There were no animals excluded. Data from experiments in vivo were analyzed using the student’s t-test for TGI values and the Mann–Whitney U test for TGD using Excel and GraphPad Prism. Fisher’s exact test was used to probe significance of differences in response frequency.

[1] = 6.25 mg/kg q7dx3 IV, mean(T)/mean(C)
[2] = 6.25 mg/kg q7dx3 IV, median(T)/median(C)
[3] = 6.25 mg/kg q7dx3 IV, SCID-beige mice
[4] = 6.25 mg/kg q7dx3 IV, OPM-2 (DSMZ) xenograft, SCID-beige mice
[5] = 25 mg/kg q7dx3 IV, mean(T)/mean(C)
[6] = 25 mg/kg q7dx3 IV, median(T)/median(C)
[7] = 25 mg/kg q7dx3 IV, SCID-beige mice
[8] = 25 mg/kg q7dx3 IV, OPM-2 (DSMZ) xenograft, SCID-beige mice
[9] = OPM-2 (DSMZ) xenograft, SCID-beige mice, 6.25 mg/kg q7dx3 IV
[10] = OPM-2 (DSMZ) xenograft, SCID-beige mice, 25 mg/kg q7dx3 IV

## Cc1c(Cl)c2c(Cl)c(C)c1-c1c(-c3ccc(F)cc3)sc3ncnc(c13)O[C@@H](C(=O)O)Cc1cc(ccc1OCc1ccnc(-c3ccc(OC[C@H]4COCCO4)cc3)n1)OC[C@@H](CN1CCN(C)CC1)O2 [Compound A-1747745]
6.25 mg/kg IV q7dx3, clinical observation, SCID-beige mice, OPM-2 (DSMZ) xenograft
  % Mortality: 100.00%
6.25 mg/kg q7dx3 IV
  Tumor Volume (mm³) Day 27, Mean: 468.28 mm³
  Tumor Volume (mm³) Day 27, Median: 424.66 mm³
  Tumor Volume (mm³) Day 27: 369 mm³ and 671 mm³ and 322 mm³ and 348 mm³ and 352 mm³ and 673 mm³ and 481 mm³ and 531 mm³
  % T/C (mean), Tumor Volume Day 30: 42.91%
  % T/C (median), Tumor Volume Day 30: 42.72%
  Tumor Volume Day 30, Mean: 634.52 mm³
  Tumor Volume Day 30, Median: 618.80 mm³
  Tumor Volume Day 34, Mean: 930.42 mm³
  Tumor Volume Day 34, Median: 940.62 mm³
[1]
  Body Weight Day 27, % T/C (mean): 97.79%
  Tumor Volume Day 27, % T/C (mean): 49.20%
[2]
  Body Weight Day 27, % T/C (median): 97.79%
  Tumor Volume Day 27, % T/C (median): 41.20%
[3]
  Tumor Volume (mm³) Day 30: 375 mm³ and 897 mm³ and 567 mm³ and 528 mm³ and 560 mm³ and 806 mm³ and 673 mm³ and 670 mm³
  Tumor Volume (mm³) Day 34: 591 mm³ and 1061 mm³ and 690 mm³ and 703 mm³ and 1071 mm³ and 821 mm³ and 1142 mm³ and 1365 mm³
[4]
  Tumor Volume (mm³) Day 23 (individual animals): 264 mm³ and 376 mm³ and 277 mm³ (2×) and 196 mm³ and 349 mm³ and 392 mm³ and 253 mm³
  Tumor Volume Day 23, Mean: 298.00 mm³
  Tumor Volume Day 23, Median: 276.63 mm³
6.25 mg/kg q7dx3 IV, OPM-2 (DSMZ) xenograft, mean(T)/mean(C)
  % T/C (mean): 68.08%
6.25 mg/kg q7dx3 IV, OPM-2 (DSMZ) xenograft, median(T)/median(C)
  % T/C (median): 67.57%
25 mg/kg IV q7dx3, clinical observation, SCID-beige mice, OPM-2 (DSMZ) xenograft
  % Mortality: 0.00%
25 mg/kg IV q7dx3, day 27, clinical observation
  % BW Loss: -2% (day 27)
25 mg/kg q7dx3 IV
  Tumor Volume (mm³) Day 27, Mean: 75.56 mm³
  Tumor Volume (mm³) Day 27, Median: 79.55 mm³
  Tumor Volume (mm³) Day 27: 109 mm³ and 83 mm³ and 115 mm³ and 60 mm³ and 69 mm³ and 4 mm³ and 77 mm³ and 88 mm³
  % T/C (mean), Tumor Volume Day 30: 2.78%
  % T/C (median), Tumor Volume Day 30: 0.28%
  Tumor Volume Day 30, Mean: 41.06 mm³
  Tumor Volume Day 30, Median: 4.00 mm³
  Tumor Volume Day 34, Mean: 4.00 mm³
  Tumor Volume Day 34, Median: 4.00 mm³
[5]
  Body Weight Day 27, % T/C (mean): 101.28%
  Tumor Volume Day 27, % T/C (mean): 7.94%
[6]
  Body Weight Day 27, % T/C (median): 101.28%
  Tumor Volume Day 27, % T/C (median): 7.72%
[7]
  Tumor Volume (mm³) Day 30: 135 mm³ and 4 mm³ (5×) and 87 mm³ (2×)
  Tumor Volume (mm³) Day 34: 4 mm³
[8]
  Tumor Volume (mm³) Day 23 (individual animals): 275 mm³ and 201 mm³ and 232 mm³ and 269 mm³ and 236 mm³ and 126 mm³ and 388 mm³ and 205 mm³
  Tumor Volume Day 23, Mean: 241.42 mm³
  Tumor Volume Day 23, Median: 233.81 mm³
25 mg/kg q7dx3 IV, OPM-2 (DSMZ) xenograft, mean(T)/mean(C)
  % T/C (mean): 55.16%
25 mg/kg q7dx3 IV, OPM-2 (DSMZ) xenograft, median(T)/median(C)
  % T/C (median): 57.11%
[9]
  Tumor Volume Day 20, Mean: 237.41 mm³
  Tumor Volume Day 20, Median: 234.06 mm³
OPM-2 (DSMZ) xenograft, SCID-beige mice, 6.25 mg/kg q7dx3 IV, 6.25 mg/kg
  Tumor Volume (mm³) Day 20, individual animals: 217 mm³ and 238 mm³ and 188 mm³ and 184 mm³ and 290 mm³ and 300 mm³ and 252 mm³ and 230 mm³
OPM-2 (DSMZ) xenograft, SCID-beige mice, 6.25 mg/kg q7dx3 IV, mean(T)/mean(C)
  Tumor Volume Day 20, % T/C (mean): 99.97%
OPM-2 (DSMZ) xenograft, SCID-beige mice, 6.25 mg/kg q7dx3 IV, median(T)/median(C)
  Tumor Volume Day 20, % T/C (median): 101.50%
OPM-2 (DSMZ) xenograft, SCID-beige mice, 6.25 mg/kg q7dx3 IV, Day 21, mean(T)/mean(C)
  Body Weight Day 21, % T/C (mean): 100.00%
OPM-2 (DSMZ) xenograft, SCID-beige mice, 6.25 mg/kg q7dx3 IV, Day 21, median(T)/median(C)
  Body Weight Day 21, % T/C (median): 100.00%
[10]
  Tumor Volume Day 20, Mean: 237.54 mm³
  Tumor Volume Day 20, Median: 238.03 mm³
OPM-2 (DSMZ) xenograft, SCID-beige mice, 25 mg/kg q7dx3 IV, 25 mg/kg
  Tumor Volume (mm³) Day 20, individual animals: 283 mm³ and 220 mm³ and 249 mm³ and 228 mm³ and 248 mm³ and 178 mm³ and 301 mm³ and 193 mm³
OPM-2 (DSMZ) xenograft, SCID-beige mice, 25 mg/kg q7dx3 IV, mean(T)/mean(C)
  Tumor Volume Day 20, % T/C (mean): 100.03%
OPM-2 (DSMZ) xenograft, SCID-beige mice, 25 mg/kg q7dx3 IV, median(T)/median(C)
  Tumor Volume Day 20, % T/C (median): 103.23%
